Measurements reported in patent US12357679B2, “Albumin-based non-covalent complexes and methods of use thereof” (Spectral Platforms, Inc., priority 2015, dated 2025).
In brackets after ≈: the same amount, converted by molar mass.

What was measured:
C. glabrata (ATCC 2001) = settings: cited from earlier work
[1] = test system: Candida albicans (ATCC 90028); settings: C. albicans; cited from earlier work
[2] = test system: most gram positive organisms; settings: cited from earlier work
[3] = cited from earlier work
[4] = ingestion of a 200 mg tablet, microcrystalline suspension in oil-wax base; cited from earlier work
S. aureus [5] = assay: Rapid MIC prediction with lycopene/HSA assay (UV-Vis absorbance after 30 min incubation); format: cell-based; settings: Staphylococcus aureus, 0.5 h
Experimental: (§1) The present lycopene/HSA complexes were used to characterize the minimum inhibitory concentration (MIC) of antimicrobial compounds. A lycopene/HSA complex, prepared as described herein, was mixed with a series of samples that all had the same initial amount of S. aureus (200 CFU/mL of PHS), and which was incubated with a varying amount of vancomycin for 30 minutes. […] Upon the addition of the lycopene/HSA assay, aggregation of the lycopene/HSA increased in a manner that scales with S. aureus concentration (and thus on the vancomycin concentration). These changes were characterized via the changes in the UV-Vis spectrum, depicted at the bottom in FIG. 23. The chart on the top in FIG. 23 depicts the absorbance at 600 nm for these samples after another 18 hours of incubation. This absorbance was dominated by the pathogen concentration after 18 hours of growth.
(§2) FIG. 23. Rapid prediction of the MIC of S. aureus at 200 CFU/mL. […] Lycopene (1.125 mM), fucoxanthin (0.375 mM), additional vancomycin (so as to maintain the same concentration of vancomycin) and additional 3440 μl PBS (to bring the total volume to 6 ml) was added and the UV-Vis absorbance was measured. […] The chart on the top depicts the absorbance at 600 nm after 18 hour incubation at 37° C. […]

S. aureus [6] = assay: MIC by absorbance at 600 nm after 18 hour incubation; format: cell-based; settings: Staphylococcus aureus; absorbance at 600 nm after 18 hour incubation at 37° C.; read-out: actual MIC (break point)
Experimental: as §1, §2

In the case of `C[C@@H]1[C@H](O)[C@@H](C)/C=C/C=C/C=C/C=C/C=C/C=C/C=C/[C@H](O[C@@H]2O[C@H](C)[C@@H](O)[C@H](N)[C@@H]2O)C[C@@H]2O[C@](O)(C[C@@H](O)C[C@@H](O)[C@H](O)CC[C@@H](O)C[C@@H](O)CC(=O)O[C@H]1C)C[C@H](O)[C@H]2C(=O)O` [Amphotericin B], the “previously reported minimum inhibitory concentration MIC” value (C. glabrata (ATCC 2001)) is given as “about 0.5 μg/mL” and the “previously reported minimum inhibitory concentration MIC” value [1] is given as “about 0.5 μg/mL”.

In the case of `CC(C)/N=c1\cc2n(-c3ccc(Cl)cc3)c3ccccc3nc-2cc1Nc1ccc(Cl)cc1` [Clofazimine], the MIC [2] is given as “about 0.4 μg/mL”, the water solubility [3] is given as “not water soluble” and the peak plasma concentration [4] is given as 0.41 µg/mL.

Work on `CN[C@H](CC(C)C)C(=O)N[C@H]1C(=O)N[C@@H](CC(N)=O)C(=O)N[C@H]2C(=O)N[C@H]3C(=O)N[C@H](C(=O)N[C@H](C(=O)O)c4cc(O)cc(O)c4-c4cc3ccc4O)[C@H](O)c3ccc(c(Cl)c3)Oc3cc2cc(c3O[C@@H]2O[C@H](CO)[C@@H](O)[C@H](O)[C@H]2O[C@H]2C[C@](C)(N)[C@H](O)[C@H](C)O2)Oc2ccc(cc2Cl)[C@H]1O` [vancomycin] yielded an MIC (S. aureus [5]; read-out: predicted MIC) of about 0.6 µg/mL (≈ 0.414 µM), an MIC (S. aureus [5]; read-out: predicted MIC (break point)) of 200 µg/mL (≈ 138 µM) and an MIC (S. aureus [6]) of 0.2 µg/mL (≈ 0.138 µM).
